Experimental data: patent US20250290074A1, “TARGETED TREATMENT OF SPLICEOPATHY-INDUCED NEUROLOGICAL DISORDERS” (Auttx, LLC, priority 2022, published 2025)
pEC50: −log10 of the molar value. Strand notation (5' to 3'): a small letter for the sugar, then the base; units joined by * are phosphorothioate-linked, units joined directly phosphodiester-linked; [ ] holds rarer units or linkages, { } end groups; capitals alone tell only the bases. e = 2'-O-(2-methoxyethyl) (MOE); [5mC] = 5-methylcytosine

Key:
[1] = tested on: hsHNRNP L mRNA; experiment: Time-course experiment, ASOs at 30 nM, hnRNP L mRNA by bDNA in BE(2)-M17 cells; format: cell-based, Homo sapiens; conditions: 30 nM ASO, mock controls set to 100%, incubations 24 h, 48 h, 72 h, time point not given
Protocol: Lipofectamine3000 (LF3000) was again used as the transfection agent. The transfection mixture was prepared identically on three plates. […] In this case, no outliers were removed. Data were generated in biological quadruplicates.
FIG. 26 includes a comparison of results from this study next to results from Example 7. Observing the results after 24 h incubation, similar data from the analysis in Example 7 were reproduced here.

[2] = tested on: human hnRNP L (hsHNRNP L) mRNA; experiment: 5-point dose response (DRC) of ASOs, hnRNP L mRNA by branched DNA assay in BE(2)-M17 cells; format: cell-based; conditions: 24 h; for max. upregulation [%] (MV normalized hsHNRNP L/hsGAPDH): Lipofectamine3000, highest 120 nM, four 4-fold dilutions, bDNA, negative controls set to 100%; for pEC50: hsHNRNP L mRNA upregulation, XLfit
From the text: Data were generated in biological quadruplicates. […] No significant decrease in hsGAPDH mRNA levels was observed.
Details and data are shown in Table 9A-9B, FIG. 24, and FIG. 25A-25E. In some cases, there was dose dependent hsHNRNP L on-target mRNA upregulation to varying degrees when cells were transfected with ASO compounds of interest.

Row | Substance | MV normalized hsHNRNP L/hsGAPDH [1] | max. upregulation [%] (MV normalized hsHNRNP L/hsGAPDH) [2] | pEC50 [2]
1 | Skip-6A-5: ASO ATGGTTTTACAGTCATAAATAC (SEQ ID NO: 54), fully 2′-MOE, 5′-methyl C, phosphorothioate; upstream intron (antisense eA*eT*eG*eG*eT*eT*eT*eT*eA*e[5mC]*eA*eG*eT*e[5mC]*eA*eT*eA*eA*eA*eT*eA*e[5mC]; listed as Homo sapiens) | 67.3% | 41.6% | 8.14
2 | Skip-6A-9: ASO TCAAACATACACTGCGACCCTG (SEQ ID NO: 58), fully 2′-MOE, 5′-methyl C, phosphorothioate; upstream intron/exon (antisense eT*e[5mC]*eA*eA*eA*e[5mC]*eA*eT*eA*e[5mC]*eA*e[5mC]*eT*eG*e[5mC]*eG*eA*e[5mC]*e[5mC]*e[5mC]*eT*eG; listed as Homo sapiens) | 31.3% | 40.2% | 8.15
3 | Skip-6A-13: ASO CAGTTCTGAAAGATGGCGTCCC (SEQ ID NO: 62), fully 2′-MOE, 5′-methyl C, phosphorothioate; exon 6A (antisense e[5mC]*eA*eG*eT*eT*e[5mC]*eT*eG*eA*eA*eA*eG*eA*eT*eG*eG*e[5mC]*eG*eT*e[5mC]*e[5mC]*e[5mC]; listed as Homo sapiens) | 56.0% | 53.3% | 8.40
4 | Skip-6A-7: ASO GCGACCCTGCATCACATGGTTT (SEQ ID NO: 56), fully 2′-MOE, 5′-methyl C, phosphorothioate; upstream intron/exon (antisense eG*e[5mC]*eG*eA*e[5mC]*e[5mC]*e[5mC]*eT*eG*e[5mC]*eA*eT*e[5mC]*eA*e[5mC]*eA*eT*eG*eG*eT*eT*eT; listed as Homo sapiens) | 59.3% | 51.2% | 8.05
5 | Skip-6A-20: ASO CTGTATTTTCTCTTACCATTGG (SEQ ID NO: 69), fully 2′-MOE, 5′-methyl C, phosphorothioate; exon 6A (antisense e[5mC]*eT*eG*eT*eA*eT*eT*eT*eT*e[5mC]*eT*e[5mC]*eT*eT*eA*e[5mC]*e[5mC]*eA*eT*eT*eG*eG; listed as Homo sapiens) | 68.3% | 71.6% | 8.30
6 | Skip-6A-16: ASO CTTCAACAGTGAGTTAGCACAG (SEQ ID NO: 65), fully 2′-MOE, 5′-methyl C, phosphorothioate; exon 6A (antisense e[5mC]*eT*eT*e[5mC]*eA*eA*e[5mC]*eA*eG*eT*eG*eA*eG*eT*eT*eA*eG*e[5mC]*eA*e[5mC]*eA*eG; listed as Homo sapiens) | 53.2% | 61.6% | 8.31
7 | Skip-6A-18: ASO TACCATTGGACGCTTCAACAGT (SEQ ID NO: 67), fully 2′-MOE, 5′-methyl C, phosphorothioate; exon 6A (antisense eT*eA*e[5mC]*e[5mC]*eA*eT*eT*eG*eG*eA*e[5mC]*eG*e[5mC]*eT*eT*e[5mC]*eA*eA*e[5mC]*eA*eG*eT; listed as Homo sapiens) | 42.7% | 47.3% | 8.04
8 | Skip-6A-19: ASO TTCTCTTACCATTGGACGCTTC (SEQ ID NO: 68), fully 2′-MOE, 5′-methyl C, phosphorothioate; exon 6A (antisense eT*eT*e[5mC]*eT*e[5mC]*eT*eT*eA*e[5mC]*e[5mC]*eA*eT*eT*eG*eG*eA*e[5mC]*eG*e[5mC]*eT*eT*e[5mC]; listed as Homo sapiens) | 62.4% | 51.8% | 8.13
9 | Skip-6A-3: ASO TAAATACAAGTCACGGTACACA (SEQ ID NO: 52), fully 2′-MOE, 5′-methyl C, phosphorothioate; upstream intron (antisense eT*eA*eA*eA*eT*eA*e[5mC]*eA*eA*eG*eT*e[5mC]*eA*e[5mC]*eG*eG*eT*eA*e[5mC]*eA*e[5mC]*eA; listed as Homo sapiens) | 29.0% | 22.1% | 8.03
10 | Skip-6A-14: ASO TTAGCACAGTTCTGAAAGATGG (SEQ ID NO: 63), fully 2′-MOE, 5′-methyl C, phosphorothioate; exon 6A (antisense eT*eT*eA*eG*e[5mC]*eA*e[5mC]*eA*eG*eT*eT*e[5mC]*eT*eG*eA*eA*eA*eG*eA*eT*eG*eG; listed as Homo sapiens) | 55.8% | 52.3% | 8.19
11 | Skip-6A-11: ASO ATGGCGTCCCATCAAACATACA (SEQ ID NO: 60), fully 2′-MOE, 5′-methyl C, phosphorothioate; exon 6A (antisense eA*eT*eG*eG*e[5mC]*eG*eT*e[5mC]*e[5mC]*e[5mC]*eA*eT*e[5mC]*eA*eA*eA*e[5mC]*eA*eT*eA*e[5mC]*eA; listed as Homo sapiens) | 38.3% | 47.8% | 8.10
12 | 5UTR-V1-2: ASO TCCGCGACATGGCGGCGCAGAA (SEQ ID NO: 48), fully 2′-MOE, 5′-methyl C, phosphorothioate; hnRNP L 5′ UTR (antisense eT*e[5mC]*e[5mC]*eG*e[5mC]*eG*eA*e[5mC]*eA*eT*eG*eG*e[5mC]*eG*eG*e[5mC]*eG*e[5mC]*eA*eG*eA*eA; listed as Homo sapiens) |  | 16.2% | 
13 | Skip-6A-1: ASO GTACACATCCGCTACAATTTTT (SEQ ID NO: 50), fully 2′-MOE, 5′-methyl C, phosphorothioate; upstream intron of hnRNP L exon 6A (antisense eG*eT*eA*e[5mC]*eA*e[5mC]*eA*eT*e[5mC]*e[5mC]*eG*e[5mC]*eT*eA*e[5mC]*eA*eA*eT*eT*eT*eT*eT; listed as Homo sapiens) | 13.0% | 9.1% | 7.82
14 | Skip-6A-4: ASO TACAGTCATAAATACAAGTCAC (SEQ ID NO: 53), fully 2′-MOE, 5′-methyl C, phosphorothioate; upstream intron (antisense eT*eA*e[5mC]*eA*eG*eT*e[5mC]*eA*eT*eA*eA*eA*eT*eA*e[5mC]*eA*eA*eG*eT*e[5mC]*eA*e[5mC]; listed as Homo sapiens) | 26.9% | 24.0% | 7.72
15 | 5UTR-V1-1: ASO ATGGCGGCGCAGAACCCGCCTC (SEQ ID NO: 47), fully 2′-MOE, 5′-methyl C, phosphorothioate; hnRNP L 5′ UTR (antisense eA*eT*eG*eG*e[5mC]*eG*eG*e[5mC]*eG*e[5mC]*eA*eG*eA*eA*e[5mC]*e[5mC]*e[5mC]*eG*e[5mC]*e[5mC]*eT*e[5mC]; listed as Homo sapiens) |  | 11.4% | 
16 | 5UTR-V1-3: ASO GCAGCAGCCTCCGCGACATGGC (SEQ ID NO: 49), fully 2′-MOE, 5′-methyl C, phosphorothioate; hnRNP L 5′ UTR (antisense eG*e[5mC]*eA*eG*e[5mC]*eA*eG*e[5mC]*e[5mC]*eT*e[5mC]*e[5mC]*eG*e[5mC]*eG*eA*e[5mC]*eA*eT*eG*eG*e[5mC]; listed as Homo sapiens) |  | 22.4% | 
